The values below come from US9085578B2, “Heterocyclic compound” (Takeda Pharmaceutical Company Limited, priority 2012, dated 2015).

T1 sequence (P29597 whole entry): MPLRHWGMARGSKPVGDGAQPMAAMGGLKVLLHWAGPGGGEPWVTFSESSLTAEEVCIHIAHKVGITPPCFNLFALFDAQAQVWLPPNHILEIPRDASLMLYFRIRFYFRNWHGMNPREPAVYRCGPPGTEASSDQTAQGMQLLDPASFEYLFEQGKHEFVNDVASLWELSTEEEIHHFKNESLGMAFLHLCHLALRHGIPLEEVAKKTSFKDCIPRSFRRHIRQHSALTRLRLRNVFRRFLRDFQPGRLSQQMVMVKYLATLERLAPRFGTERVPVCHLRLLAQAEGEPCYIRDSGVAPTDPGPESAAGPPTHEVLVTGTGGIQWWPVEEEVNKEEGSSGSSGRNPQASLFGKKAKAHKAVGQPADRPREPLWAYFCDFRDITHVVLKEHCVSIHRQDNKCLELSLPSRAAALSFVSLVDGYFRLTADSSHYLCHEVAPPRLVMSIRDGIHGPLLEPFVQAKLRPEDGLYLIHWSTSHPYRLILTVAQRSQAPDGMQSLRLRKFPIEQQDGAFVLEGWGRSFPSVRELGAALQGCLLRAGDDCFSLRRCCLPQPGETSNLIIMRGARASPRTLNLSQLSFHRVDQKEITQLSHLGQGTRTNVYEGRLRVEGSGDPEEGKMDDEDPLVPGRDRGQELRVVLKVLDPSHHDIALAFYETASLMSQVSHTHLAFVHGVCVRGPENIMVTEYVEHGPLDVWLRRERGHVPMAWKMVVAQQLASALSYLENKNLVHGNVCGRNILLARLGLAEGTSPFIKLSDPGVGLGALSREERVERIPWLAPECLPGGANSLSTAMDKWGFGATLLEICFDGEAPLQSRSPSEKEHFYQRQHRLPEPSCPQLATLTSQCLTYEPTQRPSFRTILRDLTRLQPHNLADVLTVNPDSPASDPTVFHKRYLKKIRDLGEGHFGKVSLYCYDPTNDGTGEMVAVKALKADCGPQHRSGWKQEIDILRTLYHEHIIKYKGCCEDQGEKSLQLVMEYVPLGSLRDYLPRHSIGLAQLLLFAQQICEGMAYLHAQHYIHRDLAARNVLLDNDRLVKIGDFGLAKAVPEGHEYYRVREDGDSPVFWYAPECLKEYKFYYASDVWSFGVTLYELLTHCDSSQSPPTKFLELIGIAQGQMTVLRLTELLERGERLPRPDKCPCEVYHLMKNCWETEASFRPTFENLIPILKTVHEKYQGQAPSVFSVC

This assay concerns the target T1, Tyk2 (Homo sapiens, UniProt P29597).
T1 construct: purchased Invitrogen
In words: Tyk2 enzyme inhibition test (LANCE method). The conditions noted are these: 1 uM test compound, ULight-JAK1 peptide substrate, well without enzyme = 100% inhibition, read-out: Tyk2 enzyme inhibitory activity (%, 1 uM). The format is biochemical. As to the method:
Tyk2 enzyme inhibitory activity of test compounds was measured by LANCE method (PerkinElmer). First, a test compound diluted with assay buffer (50 mM HEPES (pH=7.5), 10 mM MgCl2, 1 mM EGTA, 2 mM DTT, 0.01% Tween20, 0.01% BSA) was added to 384-well plate at 2 μL each. Then, a Tyk2 (Invitrogen) solution and a fluorescence-labeled peptide substrate (ULight-JAK1, PerkinElmer) solution diluted with assay buffer at 375 ng/mL and 300 nM, respectively were added at 2 μL each. Then, enzyme reaction was started by adding 2 μL each of ATP solution prepared with assay buffer at 30 μM. After the reaction at room temperature for 1 hr, Detection Buffer (PerkinElmer) prepared to be 20 mM EDTA, 4 nM europium-labeled anti-phosphotyrosine antibody (PerkinElmer) was added at 6 μL each. After standing at room temperature for 1 hr, fluorescence intensity (excitation wavelength 340 nm, fluorescence wavelength 665 nm, delay time 100 microsecond) was measured by a plate reader, Envision (PerkinElmer). The inhibitory activity of each compound was calculated as relative value where fluorescence intensity of a well without enzyme is considered as 100% inhibition.
(In general: In TR-FRET formats the signal depends on donor and acceptor labels being close together.)
In the case of `Nc1n[nH]c2c(-c3ccccn3)cn(-c3ccccc3Cl)c(=O)c12` [Example 24, 3-amino-5-(2-chlorophenyl)-7-(pyridin-2-yl)-1,5-dihydro-4H-pyrazolo[4,3-c]pyridin-4-one], the inhibition at 1 µM was found to be 98%.

Consider `Nc1n[nH]c2c(-c3csc(CN4CCCC4)c3)cn(-c3ccccc3Cl)c(=O)c12` [Example 38, 3-amino-5-(2-chlorophenyl)-7-(5-(pyrrolidin-1-ylmethyl)-3-thienyl)-1,5-dihydro-4H-pyrazolo[4,3-c]pyridin-4-one], for which the inhibition at 1 µM stood at 95%. As for `CC1CCCCC1n1cc(-c2ccn(C)n2)c2[nH]nc(N)c2c1=O` (stereo not drawn) [Example 14, 3-amino-5-(2-methylcyclohexyl)-7-(1-methyl-1H-pyrazol-3-yl)-1,5-dihydro-4H-pyrazolo[4,3-c]pyridin-4-one], the figure is 98%; as for `N#Cc1cc2[nH]nc(N)c2c(=O)n1-c1ccccc1Cl` [Example 16, 3-amino-5-(2-chlorophenyl)-4-oxo-4,5-dihydro-1H-pyrazolo[4,3-c]pyridine-6-carbonitrile], 82%; as for `CC(C)C(C)n1cc(-c2ccn(C)n2)c2[nH]nc(N)c2c1=O` (stereo not drawn) [Example 13, 3-amino-5-(3-methylbutan-2-yl)-7-(1-methyl-1H-pyrazol-3-yl)-1,5-dihydro-4H-pyrazolo[4,3-c]pyridin-4-one], 98%.

For the compound `Cn1ccc(-c2cn(-c3ccccc3C(F)(F)F)c(=O)c3c(N)n[nH]c23)n1` [Example 43, 3-amino-7-(1-methyl-1H-pyrazol-3-yl)-5-(2-(trifluoromethyl)phenyl)-1,5-dihydro-4H-pyrazolo[4,3-c] pyridin-4-one], the inhibition at 1 µM was found to be 92%.

Regarding `Cc1ccccc1-n1cc(Br)c2[nH]nc(N)c2c1=O` [Example 1, 3-amino-7-bromo-5-(2-methylphenyl)-1,5-dihydro-4H-pyrazolo[4,3-c]pyridin-4-one], the inhibition at 1 µM worked out at 40%. With `N#Cc1ccnc(-c2cn(-c3ccccc3Cl)c(=O)c3c(N)n[nH]c23)c1` [Example 28, 2-(3-amino-5-(2-chlorophenyl)-4-oxo-4,5-dihydro-1H-pyrazolo[4,3-c]pyridin-7-yl)isonicotinonitrile] the figure was 100%; with `Cn1ccc(-c2cn(-c3c(F)cccc3F)c(=O)c3c(N)n[nH]c23)n1` [Example 15, 3-amino-5-(2,6-difluorophenyl)-7-(1-methyl-1H-pyrazol-3-yl)-1,5-dihydro-4H-pyrazolo[4,3-c]pyridin-4-one], 100%.
